Here are results for three compounds from US5959109A, “Compounds and methods for increasing endogenous levels of corticotropin-releasing factor” (Neurocrine Biosciences, Inc., priority 1996, dated 1999).

Ends that are not written are not given here.

One series in a line: Morris water maze test. The series is classed as in vivo, rat. As to conditions: 1 or 20 mg/kg oral, 15 minutes prior to testing; FIGS. 4A, 4B. As for the experimental part: As discussed in more detail below (see Example 6), 15 minutes prior to training on each of days 1-3, groups of animals orally receive control solution or a dosage of the ligand inhibitor. Control animals typically reach the platform within five to ten seconds after three days of training. The measure of the memory modulator effects of a ligand inhibitor is a shift of this time period. Administration of a ligand inhibitor results in a dose-dependent increase in availability of synaptic CRF and a behavioral dose-dependent increase in acquisition and memory retention.
The Morris Water Maze Test is a simple spatial learning task that requires a minimal amount of stress and experience. […] The latency time to find a hidden platform is monitored. […]
The apparatus used in this test is a pool (46.4 cm in diameter, 45.7 cm high) filled to a depth of 23 cm with opaque water (22° C.-25° C.). […] The animal is placed into a designated quadrant of the tank and the time to approach and ascend the hidden platform is measured; the location of subject placement and platform remain constant throughout the experiment. […]
Rats were treated by oral administration with either vehicle or 1 or 20 mg/kg of either Compound No. 1 or Compound No. 153 15 minutes prior to testing. The latency time to reach the platform in the Morris water maze was recorded for each group.

A short description of series [1]: Automated passive avoidance learning. As to conditions: oral, 5 minutes after training period; FIGS. 5A, 5B. The series is classed as in vivo, rat. As for the experimental part: FIGS. 5A and 5B are graphs depicting the effect of administration of representative ligand inhibitors of this invention, Compound Nos. 97-1 and 153, respectively. The ligand inhibitors were administered 5 minutes post-training period in the passive avoidance test.
The apparatus for both rats and mice is the same as used in active avoidance testing (see Example 14).
For the training trial, the animal is placed individually in one compartment of the learning apparatus, which is separated from a second compartment by a guillotine door. Following a three minute habituation period, the door is opened and the latency to enter the second compartment is recorded. When the animal enters with all four paws, the door is closed, and a 0.5 second AC footshock (Coulburn precision shocker) is delivered. After five seconds, the subject is removed and placed in its home cage. At the time of testing (usually 1-7 days later), the animal is returned to the compartment in which it was initially placed for the learning trial, the door is opened and the latency to enter the second compartment is recorded, but the animal is not shocked. […]
For most strains of rats with weights between 150 and 350 grams, an effective footshock intensity ranges from 0.2-1.0 mA. […] The latency time of rats to enter the dark compartment is measured. […]

Another series can be described thus: Elevated plus-maze test. Type of series: in vivo, rat. As to conditions: ICV. The source says: The Elevated plus-maze test predicts how animals respond to an approach-avoidance situation involving an exposed, lighted space versus a dark, enclosed area. In the maze, both spaces are elevated off the ground and constitute two runways intersecting in the form of a plus sign. This type of approach-avoidance situation is a classical test of "emotionality" and is very sensitive to treatments that produce disinhibition (such as sedative or hypnotic drugs) and stress. No motivational constraints are necessary and the animal is free to remain in the dark or venture out onto the open arms.
The elevated plus-maze apparatus has four arms (50 cm long, 10 cm wide) situated at right angles to each other and elevated from the floor (50 cm). Two of the arms are enclosed with walls (40 cm high) and two arms have no walls (open arms). Subjects are placed individually into the center of the maze and allowed free access to all four arms for a 5 minute testing period. The time spent in each arm is recorded automatically by photocell beams and a computer interface.
Groups of 7-10 rats receive ICV injections of the ligand inhibitor. For purposes of comparison, rats also receive 0 or 0.1-25 μg of h/rCRF (1-41).

Another series has as its system human CRF-BP. To be noted: cited from earlier work.
For series [2] the following is noted: cited from earlier work.
For a further series, the system named is CRF receptors. As to conditions: rat, in vivo; cited from earlier work.
For the next series, the system named is CRF/CRF-BP complexes. In words: Disruption of CRF/CRF-BP complexes in human brain tissue in vitro. Type of series: binding. The source says: Other peptide molecules, which are distinct from CRF, bind CRF-BP. For example, the human neuropeptide urocortin (Vaughan et al., Nature 378:287, 1995) has a high affinity for human CRF-BP. […] Thus, CRF-BP may be a modulator of a family of CRF-related peptides. […] Such disruption has the effect of increasing free CRF levels, thus making more CRF available for binding to its receptors. The ligand inhibitors of the present invention may also be used to elevate free levels of urocortin and other members of the CRF family in mammals. Assays for measuring the increase of urocortin (as well as other CRF-related peptides) are performed essentially as described herein for CRF, except that the appropriate detection molecules are employed (e.g., antibody to urocortin). Moreover, urocortin, sauvagine, urotensin, and the like and their analogues may be used to inhibit CRF/CRF-BP complexes and raise free CRF levels or inhibit urocortin/CRF-BP complexes and raise free urocortin levels.

As for `COc1ccc(Cn2c(O)c(C=Nc3ncc(C)s3)c(=O)n(Cc3ccc(OC)cc3OC)c2=S)c(OC)c1` [Compound 153], in “Morris water maze test”, the “latency time to reach the platform / performance” value was “improved performance at each time interval”. Further, in series [1], the “latency time to entering the dark compartment” value is given as “increase in medium latency time”.

As for “human CRF: peptide that regulates the release of adrenocorticotropin (ACTH), β-endorphin, and other POMC-derived peptides from the pituitary”, the “time on the open arms / performance” value in “Elevated plus-maze test” is given as “significantly more time on the open arms, indicating increased anxiety”. In addition, the “affinity for CRF-BP” value with human CRF-BP is reported as “high affinity”. Also, in series [2] (rat, in vivo), the nocturnal food intake entry was “significant decrease on nocturnal food intake” and the “temperature response in brown adipose tissue” value is recorded as “increased temperature response in brown adipose tissue”. Besides, the body weight result in series [2] (rats) is given as “lowered body weight in rats”. Moreover, the carbachol-induced behaviors entry in the series on CRF receptors is listed as “inhibits carbachol-induced behaviors”.

Consider “rat urocortin: rat urocortin (DDPPLSIDLTFHLLRTLLELARTQSQRERAEQNRIIFDSV; ends and bridges not checked; UniProt P55090 81-120, looked up)”, for which, in the series with CRF/CRF-BP complexes, the “disruption of CRF/CRF-BP complexes” value is recorded as “can disrupt the CRF/CRF-BP complexes”.
